We go through three compounds from patent EP2061765B1, “Serine-threonine protein kinase and PARP modulators” (Senhwa Biosciences, Inc., priority 2006, dated 2008).

Data set [1] has as its system MCF-7 xenografts. The data set can be described thus: Tumor suppression in xenograft mice. As to conditions: oral administration at 100 mg/kg. The data set is classed as in vivo, NCr nu/nu mice. The protocol: (§1) Animals were handled under laminar-flow hoods.
(§2) Gemzar™ administered at a dose of 80 mg/kg IP Q3D was used as a positive control.

Data set [2] has as its system PC-3 xenografts. Kind of data set: Tumor suppression in xenograft mice. It counts as in vivo, NCr nu/nu mice. The following applies: oral administration at 150 mg/kg. The protocol:
as §1, §2

Data set [3] in a line: Distribution in plasma and tumors of animals. It counts as in vivo. As for the experimental part: The distribution of compound A1 in the plasma and tumors of animals was assessed.
For data set [4], the system named is caspase-3. Kind of data set: Caspase staining as biomarker in tumors. It counts as in vivo. As to conditions: 60 mg/kg by IV administration. The protocol: Caspase staining also was assessed as a biomarker for compound A1 treatment of tumors.
The nature of data set [5]: Pharmacokinetics after IV and PO dosing. As to conditions: for AUC(0-t) at 8 h: mouse, in vivo.
Description: The pharmacokinetics properties of drugs were investigated in ICR mice following an intravenous (IV) bolus and oral (PO) doses of drug at 5 mg/kg and 25 mg/kg respectively. Blood samples were collected at predetermined times and the plasma separated. Plasma was separated from the blood samples collected at 5,15 and 30 minutes and 1, 2, 4, 8 and 24 hours post-dose.
Drug levels were quantified by the LC/MS/MS method described below. Noncompartmental pharmacokinetic analysis was applied for intravenous administration. […] The terminal t1/2 and Co were calculated using the last three and the first three data points, respectively
Bioanalysis was performed using a Quattro Micro LC/MS/MS instrument in the MRM detection mode, with an internal standard (IS). Briefly, 15 µL plasma samples were prepared for analysis using protein precipitation with 120 µL of acetonitrile. The supernatants were transferred into a 96 well plate and subjected to LC-MS/MS analysis using a Phenomenex Polar-RP HPLC column. The mobile phases were 10 mM NH4HCO3 in water (Solution-A) and 10 mM NH4HCO3 in methanol (Solution-B). […] Quantitation of the analytes was performed in the batch mode with two bracketing calibration curves according to the bioanalytical sample list
The test system of data set [6] is MiaPaca xenografts. Kind of data set: Tumor suppression in xenograft mice. It counts as in vivo, NCr nu/nu mice. As for the experimental part:
as §1, §2

Data set [7] is described as follows: Body weight of tumor-bearing xenograft mice. The data set is classed as in vivo, NCr nu/nu mice. As to conditions: BC-PC3 xenograft mice; Figure 4B.
Data set [8] can be described thus: Tumor pharmacokinetic study. The following applies: 30 mg/kg IV QDx6.
Excerpt: Plasma, blood and tumor samples were taken on day 1,4 and 6 and three animals sacrificed for each time point.
For data set [9], the system named is BC-PC3 cells. The data set can be described thus: Tumor suppression in xenograft mice. As to conditions: 60mg/kg QD IV, 100mg/kg BID IP, 50mg/kg BID IV, Figure 4A.
In data set [10] the test system is MDA-MB-231 xenografts. Kind of data set: Tumor suppression in xenograft mice. As to conditions: IV at 30 and 60 mg/kg and oral at 200 mg/kg.
Data set [11] has as its target endogenous CK2 (Homo sapiens, UniProt P68400). Kind of data set: Modulation of endogenous CK2 activity in Jurkat cells. The data set is classed as cell-based. As to conditions: drug for two hours.
Description: Before treatment cells were washed, resuspended at a density of about 10^6 cells/milliliter in medium containing 1% fetal calf serum and incubated in the presence of indicated mounts of drug for two hours. […] To 20 microliters of diluted protein was added 10 microliters of substrate peptide ([sequence], dissolved in ADB at a concentration of 1 mM) and 10 microliters of PKA Inhibitor cocktail (Upstate).

Usually AUC(0-t) stands for exposure summed from dosing to a finite time, without extrapolation to infinity. High values mean more exposure, low ones less exposure. One may read the IC50 as the concentration that inhibits the measured activity by half.

A value given as a limit tells only on which side of the number the result lay.

Sequence of endogenous CK2 (P68400 whole entry): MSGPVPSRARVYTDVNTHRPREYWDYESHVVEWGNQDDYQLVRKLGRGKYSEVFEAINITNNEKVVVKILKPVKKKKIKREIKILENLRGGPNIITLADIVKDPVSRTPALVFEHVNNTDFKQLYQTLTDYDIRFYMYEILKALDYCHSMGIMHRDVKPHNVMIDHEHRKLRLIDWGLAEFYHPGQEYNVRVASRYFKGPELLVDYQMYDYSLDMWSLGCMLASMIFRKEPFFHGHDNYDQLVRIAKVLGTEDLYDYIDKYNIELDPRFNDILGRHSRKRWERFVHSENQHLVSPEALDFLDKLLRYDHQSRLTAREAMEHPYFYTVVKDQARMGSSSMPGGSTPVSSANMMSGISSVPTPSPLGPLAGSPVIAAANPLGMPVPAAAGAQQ
Sequence of endogenous CK2 (P67870 2-215, further chain): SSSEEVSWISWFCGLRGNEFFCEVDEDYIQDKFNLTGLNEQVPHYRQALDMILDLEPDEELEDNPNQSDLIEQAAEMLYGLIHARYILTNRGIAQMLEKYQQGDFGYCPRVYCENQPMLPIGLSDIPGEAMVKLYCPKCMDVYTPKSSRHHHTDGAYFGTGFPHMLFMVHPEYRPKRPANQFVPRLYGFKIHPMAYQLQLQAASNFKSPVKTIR

Consider `O=C(O)c1ccc2c(c1)nc(Nc1cccc(Cl)c1)c1ccncc12` [A1], for which the tumor growth entry in [1] and in data set [2] was “significantly inhibited tumor growth” throughout. Besides, the “compound identified in tumors” value in [3] (30 mg/kg IV) was “about 42.9 micromolar”; in data set [3] (60 mg/kg IV) it was ~7.0 µM; in data set [3] (200 mg/kg orally) it was ~6.4 µM. Besides, the “compound identified in plasma” value in [3] (200 mg/kg orally) was ~9.5 µM. Also, the “caspase-3 cell staining levels versus untreated control cells” value in [4] was “four-fold greater”. Also, the CLs in data set [5] (ICR mice, IV 5 mg/kg) was determined as 25 mL/min/kg. Further, the Kel was 0.1586 h⁻¹ in data set [5] (ICR mice, IV 5 mg/kg) and 0.1076 h⁻¹ in data set [5] (ICR mice, PO 25 mg/kg). The AUC(0-t) at 8 h was determined as 2910 ng·h/mL in data set [5] (iv, 5 mg/kg) and 1580 ng·h/mL in data set [5] (po, 25 mg/kg).
With `C#Cc1cccc(Nc2nc3cc(C(=O)O)ccc3c3cncnc23)c1` [A2], the tumor progression entry in [6] (IV at 50 and 60 mg/kg and IP at 100 mg/kg) was “significantly inhibited tumor progression”; in [6] (oral 100 mg/kg QDx8 and 200 mg/kg QDx6, meglumine salt), “significantly inhibited tumor progression”; in data set [9] it was “significantly inhibited tumor progression”; in [10] it was “significantly inhibited tumor progression”. Also, in data set [7], the body weight result was “not significantly altering body weight”. In [8], the “half life on repeated dosing” value is given as “about doubles”. For the same compound, the “minimum concentration after six days” value in data set [8] was 4-5 times higher. For the same compound, in [8], the “terminal slope on repeated dosing” value is “decreases”.
As to `COC(=O)c1ccc2c(c1)nc(Nc1ccc(F)c(Cl)c1)c1ncncc12` [drawing 523], the 50% inhibitory concentration (IC50) in data set [11] was > 50 µM.
